Results on 56 compounds are retold here after PubChem BioAssay AID449762 (Southern Research Specialized Biocontainment Screening …, 2010).

This assay concerns M. tuberculosis H37Rv growth inhibition, 7H9 media. Description: M. tuberculosis growth inhibition, HTS (AID 449762).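 On all read-outs here: bacterial growth assessed after seven days of incubation.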 As to conditions: for IC90: measured here: IC90 growth inhibition.

pIC50: −log10 of the molar value. Results filed as inconclusive are left out.

Regarding `CC(=O)c1ccc(NC(=O)c2cc(CC(C)C)on2)cc1`, the pIC50 (as a rule, the negative decadic logarithm of the IC50, by convention in mol/L) was 4.95 and the IC90 (as a rule, the concentration needed for an effect of 90%) worked out at 14.4 µM.

On to `CC(C)=N/N=C1/NC(=O)C(Cc2ccccc2)S1` (stereo unspecified), for which the pIC50 is 4.63 and the IC90 turned out to be 25.9 µM.

On to `CCOC(=O)N/N=C(/C)c1ccc([N+](=O)[O-])o1`, for which the pIC50 was 5.41 and the IC90 worked out at 11.8 µM.

Take `CC(C)(C)Nc1nc(NC(C)(C)C)nc(-n2ccnc2)n1`: the pIC50 is 4.84 and the IC90 was more than 100 µM.

Regarding `C=C(C)C(=O)OCC(O)COc1ccc(C(C)(C)c2ccc(OCC(O)COC(=O)C(=C)C)cc2)cc1` (stereo unspecified), the pIC50 was 4.42 and the IC90 is 48.5 µM.

`CCCCCCCCCCCCCCCC[N+](C)(C)CC`: the negative-log IC50 (pIC50) is 4.52 and the IC90 worked out at 43 µM.

As to `Cn1nc(C(F)(F)F)c2cc(NC(=O)OCC(C)(C)C)sc21`, the pIC50 is 4.88 and the IC90 came out at 40 µM.

In the case of `CC1(c2cc([N+](=O)[O-])cc([N+](=O)[O-])c2)CC(C)(C)N(C(=O)c2ccccc2)c2ccccc21` (stereo unspecified), the pIC50 is 4.92 and the IC90 is 19.4 µM.

As for `COc1cc(/C=N/NC(=O)COc2ccc(C)cc2)ccc1OC(=O)c1cccs1`, the pIC50 was 4.74 and the IC90 was determined as 30.2 µM.

Consider `Cc1ccc2c(c1)c1c3n2CCN=C3CCC1`, for which the pIC50 is 4.99 and the IC90 is 19 µM.

With `CCOC(=O)c1ccc(NC(=S)NCCc2ccc(F)cc2)cc1`, the pIC50 was 4.37 and the IC90 was more than 100 µM.

With `Cc1ccc(-n2nnc3c(=O)oc4ccccc4c32)cc1`, the pIC50 is more than 6.70 and the IC90 turned out to be 19.9 µM.

With `CC(=O)Oc1ccc(/C=N\NC(=O)c2cc3c(ccc4ccccc43)o2)cc1`, the pIC50 is 4.23 and the IC90 is more than 100 µM.

As to `CN(C)S(=O)(=O)c1cccc(NC(=O)CSc2cccc3cccnc23)c1`, the pIC50 is 4.23 and the IC90 turned out to be 65.1 µM.

As to `O=C(CCc1nnc(CCCc2ccccc2)o1)NCCCC1CCCC1`, the pIC50 was 4.98 and the IC90 worked out at 23.1 µM.

Consider `O=c1cc(CCl)nc(Cc2c(Cl)cccc2Cl)[nH]1`, for which the pIC50 is 6.29 and the IC90 turned out to be 68.7 µM.

Turning to `CCOC(=O)CSc1nsc(SCC(=O)OCC)c1C#N`, the pIC50 is 4.92 and the IC90 is 13.6 µM.

Turning to `CC(C)(C)c1ccc(OCCC(=O)OCC(=O)NC(=O)NC2CCCC2)cc1`, the pIC50 was 5.26 and the IC90 amounted to 8.58 µM.

As to `Cc1cc(C)c2c(CN3CCN(Cc4ccccc4)CC3)cc(=O)oc2c1C`, the pIC50 is 4.31 and the IC90 turned out to be 54.6 µM.

On to `CCc1ccc(N=C2NC(=O)/C(=C/c3cc(OC)c(O)c(OC)c3)S2)cc1`, for which the pIC50 was 4.48 and the IC90 was more than 100 µM.

Take `Cc1cc(-c2c(C)[nH]n(-c3ccccc3)c2=O)n[nH]1`: the pIC50 is 5.26 and the IC90 is 25.5 µM.

Turning to `Cc1ccc(/C=C2\SC(N3CCCC3)=NC2=O)cc1`, the pIC50 was 6.42 and the IC90 was 1.68 µM.

Consider `CN1CCN(Cc2nc3ccccc3c(=O)n2Cc2nc(-c3ccc4ccccc4c3)cs2)CC1`, for which the pIC50 was 4.65 and the IC90 came out at 25.7 µM.

`c1ccc(-c2n[nH]c(-c3ccccn3)n2)cc1`: the pIC50 was 4.90 and the IC90 amounted to 19.3 µM.

On to `CCN(CC)CCOC(=O)c1ccc(N/C=C(/C#N)c2nc(-c3ccc4c(c3)OCO4)cs2)cc1`, for which the negative-log IC50 (pIC50) is 4.55 and the IC90 came to 53.3 µM.

For the compound `Cc1nn(Cc2ccccc2)c(C)c1C(=O)OCC(=O)c1cc(C)n(CC(F)(F)F)c1C`, the pIC50 is 4.93 and the IC90 stood at 35.4 µM.

`O=C(c1cc2cc(F)ccc2[nH]1)N(Cc1cccnc1)CC1CCCN(C2CCCCC2)C1` (stereo unspecified): the pIC50 was 4.60 and the IC90 stood at 33.6 µM.

With `O=C(c1ccc(-c2cccc(C(F)(F)F)c2)o1)N1CCN(c2ccccc2O)CC1`, the pIC50 is 4.73 and the IC90 stood at 26.1 µM.

For the compound `O=C(NCCC1=CCCCC1)NC12CC3CC(CC(C3)C1)C2`, the pIC50 was more than 6.70 and the IC90 was 0.34 µM.

On to `O=C(c1ccc(Br)cc1)C(CN1CCOCC1)c1ccccc1` (stereo unspecified), for which the pIC50 was 5.33 and the IC90 stood at 9.41 µM.

On to `Oc1ccccc1/C=N/Nc1ccnc(SCc2ccccc2)n1`, for which the pIC50 is 5.84 and the IC90 was 1.55 µM.

Consider `Cc1cccc(NC(=O)c2nc[nH]c2C(=O)N[C@H](C)c2ccccc2)c1`, for which the pIC50 was 5.44 and the 90% effect concentration (IC90) was more than 100 µM.

Regarding `O=C1c2ccccc2CC1Sc1nnc(-c2ccncc2)o1` (stereo unspecified), the pIC50 was 4.69 and the IC90 stood at 30 µM.

In the case of `Cc1ccc(Nc2nc(N)c([N+](=O)[O-])c(N3CCCC(C)C3)n2)cc1C` (stereo unspecified), the pIC50 is 4.00 and the IC90 is more than 100 µM.

`COc1ccc(-c2csc3ncnc(N4CCN(c5ccccc5OC)CC4)c23)cc1`: the pIC50 was 4.64 and the IC90 was 26.2 µM.

Take `CCCCOC(=O)NS(=O)(=O)c1sc(CC(C)C)cc1-c1ccc(Cn2c(CC)nc3c(C)cc(C)nc32)cc1`: the pIC50 was 4.58 and the IC90 was determined as 35.4 µM.

In the case of `On1onc2c3cc(-c4ccccc4)nc3ccc21`, the pIC50 is more than 6.70 and the IC90 was less than 0.2 µM.

`CC(=O)c1cccc(NC(=O)C2C3C=CC(C3=C(c3ccccc3)c3ccccc3)C2C(=O)O)c1` (stereo unspecified) yielded an IC90 of more than 100 µM.

For the compound `CC1=C(/C=C/C(C)=C/C=C/C(C)=C/C(=O)Nc2ccc(O)cc2)C(C)(C)CCC1`, the pIC50 is 4.38 and the IC90 came to 59.8 µM.

Take `CN(C)CCCN(C(=O)c1cc(-c2cccs2)nc2ccccc12)c1nc2ccc(F)cc2s1`: the pIC50 was 4.39 and the IC90 was determined as 55.5 µM.

For `C1=C(c2c[nH]c3ccccc23)CCNC1`, the pIC50 was 4.49 and the IC90 turned out to be 39.8 µM.

Take `O=C(/C(=C/c1ccc(Cl)cc1)c1nc2ccccc2[nH]1)c1cccs1`: the pIC50 is 4.67 and the IC90 came to 42.7 µM.

As to `CCN1CSC(=S)N(Cc2ccccc2)C1`, the pIC50 was 4.98 and the IC90 turned out to be 24.1 µM.

For `Cc1cc(N2CCC(C)CC2)nc(-n2nc(C)cc2C)n1`, the pIC50 is more than 6.70 and the 90% effect concentration (IC90) worked out at 5.47 µM.

For the compound `CC(C)Cc1ccc(C(C)C(N)=NCCc2ccccc2)cc1` (stereo unspecified), the pIC50 was 4.65 and the IC90 turned out to be 25.8 µM.

Take `COc1ccc(SC[C@H](Cc2ccccc2)N2CCN(CCc3ccccc3)CCC2=O)cc1`: the pIC50 was 4.43 and the IC90 was 46.7 µM.

As for `CCOC(=O)c1ccc(N=C2C(=S)N(c3ccc(C(=O)OCC)cc3)C(=N)N2/N=C/c2ccccc2)cc1`, the pIC50 is 4.16 and the IC90 was more than 100 µM.

Consider `O=C1CC(/C=C/c2ccc(Cl)cc2)=Nc2ccccc2N1`, for which the pIC50 is 4.92 and the IC90 came to 14.1 µM.

In the case of `COc1ccc(C2CC(=O)c3cnc(Nc4cc(C)cc(C)c4)nc3C2)cc1` (stereo unspecified), the pIC50 is 4.91 and the IC90 was 22.4 µM.

For the compound `S=C(NCc1ccc(Cl)cc1)NC12CC3CC(CC(C3)C1)C2`, the pIC50 is 6.15 and the IC90 is 11.6 µM.

On to `Cc1nnc(SCc2ccccc2Cl)n(N)c1=O`, for which the pIC50 is 6.42 and the IC90 amounted to 5.3 µM.

In the case of `O=C(CSc1nc2ccccc2nc1N1CCOCC1)N1CCN(c2ccccc2)CC1`, the pIC50 is 4.94 and the IC90 is 13.2 µM.

For the compound `O=C(OCC(=O)c1c[nH]c2ccccc12)c1cc(Br)ccc1O`, the pIC50 is 5.03 and the IC90 came to 15.3 µM.

With `Cc1nn(Cc2ccccc2)c(C)c1NC(=O)c1cc2nc(-c3ccco3)cc(C(F)(F)F)n2n1`, the pIC50 is 4.33 and the IC90 is more than 100 µM.

Consider `Cc1nc([N+](=O)[O-])c(Br)n1CC(=O)c1ccc2ccccc2c1`, for which the pIC50 is 5.67 and the IC90 was determined as 11.9 µM.

`C=CCOc1ccc(/C=C/C(=O)OCC(=O)NCC2CCCO2)cc1` (stereo unspecified): the pIC50 is 4.01 and the IC90 was more than 100 µM.
